Laboratory results published in ChEMBL document CHEMBL5050844 (2019).

Assays:
[1] = target: T1, E3 ubiquitin-protein ligase CBL-B (Homo sapiens, UniProt Q13191); assay: Inhibition of N-terminal Avi-tagged human CBL-B (36 to 427 residues) incubated with 60 nM Src kinase for 1.5 hrs followed by incubation with fluorescently labeled UbcH5B-Ub for 1 hr and measured by TR-FRET assay; format: single protein
[2] = Induction of anti-CD3/CD28 antibodies-stimulated human T cell activation at 1 uM assessed fold increase in IL-2 secretion measured by ELISA assay; format: functional, T cell line
[3] = Induction of anti-CD3/CD28 antibodies-stimulated human T cell activation at 0.3 uM assessed fold increase in IL-2 secretion measured by ELISA assay; format: functional, T cell line
[4] = Induction of anti-CD3 antibodies-stimulated human T cell activation at 1 uM assessed fold increase in IL-2 secretion measured by ELISA assay; format: functional, T cell line; also: reference of the scale not given here
[5] = Induction of anti-CD3/CD28 antibodies-stimulated human T cell activation at 1 uM assessed fold increase in CD25 expression measured by ELISA assay; format: functional, T cell line
[6] = Induction of anti-CD3/CD28 antibodies-stimulated human T cell activation at 0.3 uM assessed fold increase in CD25 expression measured by ELISA assay; format: functional, T cell line
[7] = Induction of anti-CD3 antibodies-stimulated human T cell activation at 1 uM assessed fold increase in CD25 expression measured by ELISA assay; format: functional, T cell line; also: reference of the scale not given here
[8] = Induction of anti-CD3 antibodies-stimulated human CD4+ T cell activation in immunocompetent mouse assessed fold increase in CD25 expression at 90 mg/kg, ip administered twice a day; format: functional; also: reference of the scale not given here
[9] = Induction of anti-CD3 antibodies-stimulated human CD4+ T cell activation in immunocompetent mouse assessed fold increase in CD25 expression at 90 mg/kg, po administered twice a day; format: functional; also: reference of the scale not given here
[10] = Induction of anti-CD3 antibodies-stimulated human CD4+ T cell activation in immunocompetent mouse assessed fold increase in CD25 expression at 180 mg/kg, po administered twice a day; format: functional; also: reference of the scale not given here
[11] = Induction of anti-CD3 antibodies-stimulated human CD8+ T cell activation in immunocompetent mouse assessed fold increase in CD25 expression at 45 mg/kg, po administered twice a day; format: functional; also: reference of the scale not given here
[12] = Induction of anti-CD3 antibodies-stimulated human CD8+ T cell activation in immunocompetent mouse assessed fold increase in CD25 expression at 90 mg/kg, ip administered thrice a day; format: functional; also: reference of the scale not given here
[13] = Induction of anti-CD3 antibodies-stimulated human CD8+ T cell activation in immunocompetent mouse assessed fold increase in CD25 expression at 135 mg/kg, po administered twice a day; format: functional; also: reference of the scale not given here
[14] = Induction of anti-CD3 antibodies-stimulated human CD8+ T cell activation in immunocompetent mouse assessed fold increase in CD25 expression at 180 mg/kg, po administered twice a day; format: functional; also: reference of the scale not given here
[15] = target: T1, E3 ubiquitin-protein ligase CBL-B; assay: Binding affinity towards N-terminal biotinylated Avi-tagged human CBL-B (36 to 427 residues) measured by surface plasmon resonance assay
[16] = Induction of anti-CD3/CD28 antibodies-stimulated human T cell activation at 4 uM assessed fold increase in IL-2 secretion measured by ELISA assay; format: functional, T cell line
[17] = Induction of anti-CD3 antibodies-stimulated human T cell activation at 8 uM assessed fold increase in IL-2 secretion measured by ELISA assay; format: functional, T cell line; also: reference of the scale not given here
[18] = Induction of anti-CD3/CD28 antibodies-stimulated human T cell activation at 4 uM assessed fold increase in CD25 expression measured by ELISA assay; format: functional, T cell line
[19] = Induction of anti-CD3 antibodies-stimulated human T cell activation at 8 uM assessed fold increase in CD25 expression measured by ELISA assay; format: functional, T cell line; also: reference of the scale not given here
[20] = Induction of anti-CD3 antibodies-stimulated human CD4+ T cell activation in immunocompetent mouse assessed fold increase in CD25 expression at 135 mg/kg, po administered twice a day; format: functional; also: reference of the scale not given here
[21] = Induction of anti-CD3 antibodies-stimulated human CD8+ T cell activation in immunocompetent mouse assessed fold increase in CD25 expression at 90 mg/kg, po administered twice a day; format: functional; also: reference of the scale not given here
[22] = Induction of activation of human CD56+ CD3- NK cells co-cultured with human K562 cells in 5:1 ratio and assessed as increase in IFN-gamma secretion at 10 uM measured by ELISA assay; format: functional, Natural killer cell
[23] = Induction of activation of human CD56+ CD3- NK cells co-cultured with human K562 cells in 5:1 ratio and assessed as increase in IFN-gamma secretion at 1 uM measured by ELISA assay; format: functional, Natural killer cell
[24] = Induction of activation of human CD56+ CD3- NK cells co-cultured with human K562 cells in 1:1 ratio and assessed as increase in IFN-gamma secretion at 10 uM measured by ELISA assay; format: functional, Natural killer cell
[25] = Induction of activation of human CD56+ CD3- NK cells co-cultured with human K562 cells in 1:1 ratio and assessed as increase in IFN-gamma secretion at 1 uM measured by ELISA assay; format: functional, Natural killer cell
[26] = Induction of activation of human CD56+ CD3- NK cells co-cultured with human K562 cells in 5:1 ratio and assessed as increase in TNF-alpha secretion at 10 uM measured by ELISA assay; format: functional, Natural killer cell
[27] = Induction of activation of human CD56+ CD3- NK cells co-cultured with human K562 cells in 5:1 ratio and assessed as increase in TNF-alpha secretion at 1 uM measured by ELISA assay; format: functional, Natural killer cell
[28] = Induction of activation of human CD56+ CD3- NK cells co-cultured with human K562 cells in 1:1 ratio and assessed as increase in TNF-alpha secretion at 10 uM measured by ELISA assay; format: functional, Natural killer cell
[29] = Induction of activation of human CD56+ CD3- NK cells co-cultured with human K562 cells in 1:1 ratio and assessed as increase in TNF-alpha secretion at 1 uM measured by ELISA assay; format: functional, Natural killer cell
[30] = Induction of activation of human CD56+ CD3- NK cells co-cultured with human K562 cells in 5:1 ratio and assessed as increase in MIP1beta secretion at 10 uM measured by ELISA assay; format: functional, Natural killer cell
[31] = Induction of activation of human CD56+ CD3- NK cells co-cultured with human K562 cells in 5:1 ratio and assessed as increase in MIP1beta secretion at 1 uM measured by ELISA assay; format: functional, Natural killer cell
[32] = Induction of activation of human CD56+ CD3- NK cells co-cultured with human K562 cells in 1:1 ratio and assessed as increase in MIP1beta secretion at 10 uM measured by ELISA assay; format: functional, Natural killer cell
[33] = Induction of activation of human CD56+ CD3- NK cells co-cultured with human K562 cells in 1:1 ratio and assessed as increase in MIP1beta secretion at 1 uM measured by ELISA assay; format: functional, Natural killer cell
[34] = Induction of allogenic human T cell activation at 10 uM assessed fold increase in cell proliferation; format: functional, T cell line
[35] = Induction of allogenic human T cell activation at 3 uM assessed fold increase in cell proliferation; format: functional, T cell line
[36] = Induction of anti-CD3 antibodies-stimulated human exhausted T cell activation assessed fold increase in IFN-gamma secretion measured by ELISA assay; format: functional, T cell line; also: reference of the scale not given here
[37] = Induction of anti-CD3 antibodies-stimulated human exhausted T cell activation assessed fold increase in IL-2 secretion measured by ELISA assay; format: functional, T cell line; also: reference of the scale not given here
[38] = Induction of anti-CD3 antibodies-stimulated human exhausted T cell activation assessed fold increase in GM-CSF secretion measured by ELISA assay; format: functional, T cell line; also: reference of the scale not given here
[39] = Induction of anti-CD3 antibodies-stimulated human exhausted CD4+ T cell activation assessed fold increase in CTLA4 expression measured by flow cytometry analysis; format: functional, T cell line; also: reference of the scale not given here
[40] = Induction of anti-CD3 antibodies-stimulated human exhausted CD8+ T cell activation assessed fold increase in CTLA4 expression measured by flow cytometry analysis; format: functional, T cell line; also: reference of the scale not given here
[41] = Induction of anti-CD3/CD28 antibodies-stimulated human anergic T cell activation at 10 uM assessed fold increase in IFN-gamma secretion measured by ELISA assay; format: functional, T cell line
[42] = Induction of anti-CD3/CD28 antibodies-stimulated human anergic T cell activation at 1.11 uM assessed fold increase in IFN-gamma secretion measured by ELISA assay; format: functional, T cell line
[43] = Induction of anti-CD3/CD28 antibodies-stimulated human anergic T cell activation at 0.37 uM assessed fold increase in IFN-gamma secretion measured by ELISA assay; format: functional, T cell line
B cell = assay: Induction of anti-IgM-stimulated human CD20+ B cell activation at 10 to 1000 uM assessed as increase in CD69 expression measured as mean fluorescence intensity AUC by flow cytometry analysis; format: functional, cell-based; details: dose 10-1000 µM
[44] = Induction of activation of human CD56+ CD3- NK cells co-cultured with human K562 cells in 1:1 ratio and assessed as increase in IFN-gamma secretion at 2.5 uM measured by ELISA assay; format: functional, Natural killer cell
[45] = Induction of activation of human CD56+ CD3- NK cells co-cultured with human K562 cells in 1:1 ratio and assessed as increase in IFN-gamma secretion at 0.625 uM measured by ELISA assay; format: functional, Natural killer cell
[46] = Induction of activation of human CD56+ CD3- NK cells co-cultured with human K562 cells in 1:1 ratio and assessed as increase in TNF-alpha secretion at 2.5 uM measured by ELISA assay; format: functional, Natural killer cell
[47] = Induction of activation of human CD56+ CD3- NK cells co-cultured with human K562 cells in 1:1 ratio and assessed as increase in TNF-alpha secretion at 0.625 uM measured by ELISA assay; format: functional, Natural killer cell

T1 sequence (Q13191 whole entry, the tested form may be a part): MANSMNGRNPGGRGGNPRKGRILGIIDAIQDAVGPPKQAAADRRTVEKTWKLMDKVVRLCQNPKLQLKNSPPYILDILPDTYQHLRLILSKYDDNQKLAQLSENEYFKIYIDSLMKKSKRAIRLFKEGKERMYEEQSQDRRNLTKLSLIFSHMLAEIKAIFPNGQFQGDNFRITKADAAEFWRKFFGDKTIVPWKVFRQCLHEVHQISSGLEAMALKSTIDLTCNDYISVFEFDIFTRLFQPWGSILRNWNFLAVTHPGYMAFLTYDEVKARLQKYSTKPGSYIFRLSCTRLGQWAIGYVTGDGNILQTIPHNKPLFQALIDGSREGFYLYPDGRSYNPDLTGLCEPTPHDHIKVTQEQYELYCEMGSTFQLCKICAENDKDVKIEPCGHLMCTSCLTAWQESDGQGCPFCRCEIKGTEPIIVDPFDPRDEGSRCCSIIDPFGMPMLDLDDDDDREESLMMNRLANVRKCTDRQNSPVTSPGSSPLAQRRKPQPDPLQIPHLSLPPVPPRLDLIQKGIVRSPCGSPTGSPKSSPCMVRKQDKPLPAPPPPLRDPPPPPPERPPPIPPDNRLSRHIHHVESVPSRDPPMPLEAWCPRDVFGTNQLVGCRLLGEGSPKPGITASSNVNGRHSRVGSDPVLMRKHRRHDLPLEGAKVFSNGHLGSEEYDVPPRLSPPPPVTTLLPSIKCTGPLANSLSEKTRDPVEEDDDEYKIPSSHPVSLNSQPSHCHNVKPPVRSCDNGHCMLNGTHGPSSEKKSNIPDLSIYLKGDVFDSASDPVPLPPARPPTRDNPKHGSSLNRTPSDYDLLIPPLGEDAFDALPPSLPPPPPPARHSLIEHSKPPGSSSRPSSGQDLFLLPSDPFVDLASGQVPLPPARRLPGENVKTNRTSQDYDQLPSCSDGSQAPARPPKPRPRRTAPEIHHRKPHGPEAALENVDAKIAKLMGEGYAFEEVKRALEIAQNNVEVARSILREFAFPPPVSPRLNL

| SMILES | IC50 [1] [nM] | fold change (FC) [2] | fold change (FC) [3] | fold change (FC) [4] | fold change (FC) [5] | fold change (FC) [6] | fold change (FC) [7] | fold change (FC) [8] | fold change (FC) [9] | fold change (FC) [10] | fold change (FC) [11] | fold change (FC) [12] | fold change (FC) [13] | fold change (FC) [14] | Kd [15] [nM] | fold change (FC) [16] | fold change (FC) [20] | fold change (FC) [21] | fold change (FC) [24] | fold change (FC) [28] | further results |
| --- | --- | --- | --- | --- | --- | --- | --- | --- | --- | --- | --- | --- | --- | --- | --- | --- | --- | --- | --- | --- | --- |
| C[C@@H](c1cc2c(c(C(F)(F)F)c1)CN(c1cccc(C3([C@@H](F)c4nncn4C)COC3)c1)C2=O)N1CCC2(CC2)C1 (single isomer, unassigned) | < 100 | >=7.5 | >=7.5 | >=0.201 | 1.31 | 1.31 | >=1.001 | 1.51 | >2.5 | >2.5 | 1 | 1.51 | 1.51 | 1.51 | – | – | – | – | – | – | – |
| Cn1cnnc1C(F)(F)[C@](C)(F)c1cccc(N2Cc3c(cc(CN4CCC(F)(F)C4)cc3C(F)(F)F)C2=O)c1 | < 100 | 2.51 | 1.01 | 0.101 | 1.01 | 1.01 | 0.801 | – | 1 | 1 | 1 | <1 | <1 | <1 | < 100 | >=7.5 | 1 | <1 | >=5 | 2.01 | fold change (FC) [17]: >=0.201; fold change (FC) [18]: 1.31; fold change (FC) [19]: >=1.001; fold change (FC) [22]: >=5; fold change (FC) [23]: 1.01; fold change (FC) [25]: 1.01; fold change (FC) [26]: 2.01; fold change (FC) [27]: 1.01; fold change (FC) [29]: 1.01; fold change (FC) [30]: 2.01; fold change (FC) [31]: 1.01; fold change (FC) [32]: 2.01; fold change (FC) [33]: 1.01 |
| Cn1cnnc1C(F)(F)[C@](C)(F)c1cccc(N2Cc3c(cc(CN4CC[C@H](F)C4)cc3C(F)(F)F)C2=O)c1 | < 100 | >=7.5 | 2.51 | >=0.201 | 1.51 | 1.31 | >=1.001 | – | 1 | 1.51 | <1 | <1 | 1 | 1 | < 100 | >=7.5 | 1 | 1 | >=5 | 2.01 | fold change (FC) [17]: >=0.201; fold change (FC) [18]: 1.51; fold change (FC) [19]: >=1.001; fold change (FC) [22]: >=5; fold change (FC) [23]: >=5; fold change (FC) [25]: 2.01; fold change (FC) [26]: >=5; fold change (FC) [27]: 2.01; fold change (FC) [29]: 2.01; fold change (FC) [30]: 2.01; fold change (FC) [31]: 1.01; fold change (FC) [32]: 1.01; fold change (FC) [33]: <=1 |
| C[C@@H]1CN(Cc2cc3c(c(C(F)(F)F)c2)CN(c2cccc(C4(Cc5nncn5C)COC4)c2)C3=O)CCO1 | < 100 | >=7.5 | >=7.5 | >=0.201 | 1.31 | 1.31 | >=1.001 | 1 | – | – | 1 | – | – | – | – | – | 1.51 | 1 | – | – | – |
| Cn1cnnc1CC1(c2cccc(NC(=O)c3cc(CN4CCC5(CC5)C4)cc(C4CC4)n3)c2)COC1 | < 100 | >=7.5 | >=7.5 | >=0.201 | 1.31 | 1.31 | >=1.001 | 1.51 | >2.5 | >2.5 | 1 | 1 | 1 | 1.51 | – | – | – | – | >=5 | >=5 | fold change (FC) [34]: >3; fold change (FC) [35]: >3; fold change (FC) [36]: >1.61; fold change (FC) [37]: 2.51; fold change (FC) [38]: >1.61; fold change (FC) [39]: >1.61; fold change (FC) [40]: >1.61; fold change (FC) [41]: >4.01; fold change (FC) [42]: >4.01; fold change (FC) [43]: >4.01; AUC (B cell): > 1.51; fold change (FC) [44]: >=5; fold change (FC) [45]: 2.01; fold change (FC) [46]: 1.01; fold change (FC) [47]: >=5 |
